Measurements reported in patent USRE37781E1, “Substituted cyclic carbonyls and derivatives thereof useful as retroviral protease inhibitors” (DuPont Pharmaceuticals Company, priority 1991, dated 2002).
≈ marks a conversion by molar mass, not a printed value. Where “and” joins values, the source holds several entries; their conditions need not be identical. Equal entries are not always repeated. Where two headings read alike, the source gives them in different places.

Columns and labels:
HIV-1 (RF) in MT-2 cells = assay: microbe, parasite or virus in culture; format: cell-based; settings: read-out: IC90
How it was run: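 HIV-1 laboratory strains (RF, MN, IIIB) grown in H9 cells in RPMI 1640 with 5% FCS; infections in MT-2 cells. Viral RNA quantified by hybridization with biotinylated gag/pol capture probes on streptavidin plates and alkaline phosphatase-conjugated reporter probes; BH10 gag-pol in vitro transcripts serve as RNA standards.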

[1] = biological target: single-chain tethered dimer of HIV protease (Human immunodeficiency virus 1, UniProt P04585); assay: biochemical; format: biochemical; parameters: fused on or other part: A second copy of the same protease unit is joined to the first by a short peptide tether, giving one polypeptide
[2] = Human immunodeficiency virus 1, MT2, 48 h, Table 2d, class symbols
[3] = read-out: HPLC K1, Table 2d, class symbols
[4] = Human immunodeficiency virus 1, MT2, 48 h, Table 2d, HIV RNA assay
[5] = read-out: HPLC K1, Table 2d, HIV protease inhibition, HPLC method
[6] = Human immunodeficiency virus 1, MT2, Table 2m

SMILES	IC90 (HIV-1 (RF) in MT-2 cells; [2]) [µg/mL]	melting point	Ki [1, 3] [nM]	IC90 (HIV-1 (RF) in MT-2 cells; [4]) [µg/mL]	Ki [1, 5] [nM]	IC90 (HIV-1 (RF) in MT-2 cells; [6]) [µg/mL]	Ki ([1]; read-out: HPLC Ki, Table 2m) [nM]
CCN(CC)C(=O)c1cccc(CN2C(=O)N(Cc3cccc(C(=O)N(CC)CC)c3)C(Cc3ccccc3)C(O)C(O)C2Cc2ccccc2)c1 (stereo not drawn) [15WF]	< 10	89 to 91 °C	< 10	–	–	–	–
N#Cc1cc(CN2C(=O)N(Cc3cccc(-c4cc[nH]n4)c3)C(Cc3ccccc3)C(O)C(O)C2Cc2ccccc2)ccc1F (stereo not drawn) [Example 15CF]	–	118 to 120 °C	–	< 10	< 10	–	–
O=C1N(Cc2cccc(-c3cnc[nH]3)c2)C(Cc2ccccc2)C(O)C(O)C(Cc2ccccc2)N1Cc1cccc(-c2cnc[nH]2)c1 (stereo not drawn) [Example 15BK]	–	171 to 175 °C	–	< 10	< 10	–	–
Nc1cccc(CN2C(=O)N(Cc3cccc(-c4cc[nH]n4)c3)C(Cc3ccccc3)C(O)C(O)C2Cc2ccccc2)c1 (stereo not drawn) [Example 15CE]	–	136 to 138 °C	–	< 10	< 10	–	–
O=[N+]([O-])c1cccc(CN2C(Cc3ccccc3)C(O)C(O)C(Cc3ccccc3)N(Cc3cccc([N+](=O)[O-])c3)S2(=O)=O)c1 (stereo not drawn) [23L]	–	196 to 198 °C	–	–	–	< 10	10 to 1000
N#Cc1cccc(CN2C(=O)N(Cc3cccc(C=O)c3)C(Cc3ccccc3)C(O)C(O)C2Cc2ccccc2)c1 (stereo not drawn) [10C]	< 10	189 to 191 °C	< 10	–	–	–	–
NC(=NO)c1cccc(CN2C(=O)N(Cc3ccc(O)cc3)C(Cc3ccccc3)C(O)C(O)C2Cc2ccccc2)c1 (stereo not drawn) [15AU]	–	195 to 197 °C	–	< 10	< 10	–	–
CCC(O)CN1C(=O)N(CC(O)CC)C(Cc2ccccc2)C(O)C(O)C1Cc1ccccc1 (stereo not drawn) [15VN]	> 50	99.2 °C	> 1000	–	–	–	–
CCNC(=O)c1cccc(CN2C(=O)N(Cc3cccc(C(=O)NCC)c3)C(Cc3ccccc3)C(O)C(O)C2Cc2ccccc2)c1 (stereo not drawn) [11R]	< 10	135 to 138 °C	< 10	–	–	–	–
NC(=NO)c1ccc(CN2C(=O)N(Cc3ccc(CO)cc3)C(Cc3ccccc3)C(O)C(O)C2Cc2ccccc2)cc1 (stereo not drawn) [15AI]	–	215 °C	–	< 10	10 to 1000	–	–
O=C1N(Cc2ccc(CO)cc2)C(Cc2ccccc2)C(O)C(O)C(Cc2ccccc2)N1Cc1cccc([N+](=O)[O-])c1 (stereo not drawn) [15J]	< 10	92 °C	< 10	–	–	–	–
O=C1N(Cc2ccccc2)C(Cc2ccccc2)C(O)C(O)C(Cc2ccccc2)N1Cc1cccc(O)c1 (stereo not drawn) [11I]	< 10	189 to 193 °C	< 10	–	–	–	–
CSc1cccc(CN2C(=O)N(Cc3cccc(SC)c3)C(Cc3ccccc3)C(O)C(O)C2Cc2ccccc2)c1 (stereo not drawn) [Example 12R]	< 10	169 °C and 169.3 °C	< 10	–	–	–	–
O=C1N(Cc2ccc3[nH]ncc3c2)C(Cc2ccccc2)C(O)C(O)C(Cc2ccccc2)N1Cc1ccc2[nH]ncc2c1 (stereo not drawn) [15CX]	–	165 to 170 °C	–	< 10	< 10	–	–
O=S1(=O)N(CC2CC2)C(Cc2ccccc2)C(O)C(O)C(Cc2ccccc2)N1CC1CC1 (stereo not drawn) [Example 23F]	–	71 to 72 °C	–	–	–	< 10	< 10
CCN(CC)C(=O)c1cccc(CN2C(=O)N(Cc3cccc(CO)c3)C(Cc3ccccc3)C(O)C(O)C2Cc2ccccc2)c1 (stereo not drawn) [15WJ]	< 10	88.9 to 90 °C	< 10	–	–	–	–
COC(=O)Oc1cccc(CN2C(=O)N(Cc3cccc(OC(=O)OC)c3)C(Cc3ccccc3)C(O)C(O)C2Cc2ccccc2)c1 (stereo not drawn) [Example 9G]	< 10	146 to 147 °C	10 to 1000	–	–	–	–
CN(C=O)c1cccc(CN2C(=O)N(Cc3cccc(N(C)C=O)c3)C(Cc3ccccc3)C(O)C(O)C2Cc2ccccc2)c1 (stereo not drawn) [15F]	< 10	82 °C	10 to 1000	–	–	–	–
CONC(=O)c1ccc(CN2C(=O)N(Cc3ccc(C(=O)NOC)cc3)C(Cc3ccccc3)C(O)C(O)C2Cc2ccccc2)cc1 (stereo not drawn) [10S]	< 10	186 to 189 °C	< 10	–	–	–	–

SMILES	IC90 (HIV-1 (RF) in MT-2 cells; [2]) [µg/mL]	melting point	Ki [1, 3] [nM]	IC90 (HIV-1 (RF) in MT-2 cells; [4]) [µg/mL]	Ki [1, 5] [nM]	IC90 (HIV-1 (RF) in MT-2 cells; [6]) [µg/mL]	Ki ([1]; read-out: HPLC Ki, Table 2m) [nM]
NC(=NO)c1cccc(CN2C(=O)N(Cc3ccc4ccccc4c3)C(Cc3ccccc3)C(O)C(O)C2Cc2ccccc2)c1 (stereo not drawn) [15AN]	–	192 to 193 °C	–	< 10	< 10	–	–
O=C(O)c1cccc(CN2C(=O)N(Cc3ccccc3)C(Cc3ccccc3)C(O)C(O)C2Cc2ccccc2)c1 (stereo not drawn) [15WP]	< 10	122 to 124 °C	< 10	–	–	–	–
NC(=NO)c1cccc(CN2C(=O)NC(Cc3ccccc3)C(O)C(O)C2Cc2ccccc2)c1 (stereo not drawn) [15AT]	–	172 to 179 °C	–	< 10	< 10	–	–
O=C1N(Cc2cccc(O)c2)C(Cc2ccccc2)C(O)C(O)C(Cc2ccccc2)N1Cc1ccc2ccccc2c1 (stereo not drawn) [10K]	< 10	137 to 138 °C	< 10	–	–	–	–
NC(=NO)c1cccc(CN2C(=O)N(Cc3ccc(CO)cc3)C(Cc3ccccc3)C(O)C(O)C2Cc2ccccc2)c1 (stereo not drawn) [15AH]	–	198 to 199 °C	–	< 10	< 10	–	–
NC(=O)c1cccc(CN2C(=O)N(CC3CC3)C(Cc3ccccc3)C(O)C(O)C2Cc2ccccc2)c1 (stereo not drawn) [15WV]	< 10	128 to 130 °C	< 10	–	–	–	–
CC(C)NC(=O)c1cccc(CN2C(=O)N(Cc3cccc(C(=O)O)c3)C(Cc3ccccc3)C(O)C(O)C2Cc2ccccc2)c1 (stereo not drawn) [15WN]	< 10	164 to 167 °C	< 10	–	–	–	–
CON=Cc1cccc(CN2C(=O)N(Cc3cccc(C=NOC)c3)C(Cc3ccccc3)C(O)C(O)C2Cc2ccccc2)c1 (stereo not drawn) [10D]	> 100	183 to 185 °C	10 to 1000	–	–	–	–
O=C1N(Cc2cccc(C=NO)c2)C(Cc2ccccc2)C(O)C(O)C(Cc2ccccc2)N1Cc1cccc(CNO)c1 (stereo not drawn) [Example 9A]	< 10	214 to 216 °C	10 to 1000	–	–	–	–
O=C1N(Cc2ccc(CO)cc2)C(Cc2ccccc2)C(O)C(O)C(Cc2ccccc2)N1Cc1cccc(O)c1 (stereo not drawn) [10o]	< 10	141 to 144 °C	< 10	–	–	–	–
O=C1NC(Cc2ccccc2)C(O)C(O)C(Cc2ccccc2)N1Cc1cccc(CO)c1 (stereo not drawn) [15WI]	< 10	176 to 177 °C	< 10	–	–	–	–
O=C1N(Cc2cccc(NS(=O)(=O)C(F)(F)F)c2)C(Cc2ccccc2)C(O)C(O)C(Cc2ccccc2)N1Cc1cccc(NS(=O)(=O)C(F)(F)F)c1 (stereo not drawn) [15B]	10 to 100 (≈ 12.5 to 125 µM)	141.8 °C	< 10	–	–	–	–
O=C1N(CCCCCO)C(Cc2ccccc2)C(O)C(O)C(Cc2ccccc2)N1Cc1ccc2ccccc2c1 (stereo not drawn) [Example 15VH]	< 10	84.6 °C	< 10	–	–	–	–
O=C(O)c1cccc(CN2C(=O)N(Cc3ccc(CO)cc3)C(Cc3ccccc3)C(O)C(O)C2Cc2ccccc2)c1 (stereo not drawn) [15WR]	< 10	130 to 132 °C	< 10	–	–	–	–
CNC(=O)c1cccc(CN2C(=O)N(Cc3cccc(CO)c3)C(Cc3ccccc3)C(O)C(O)C2Cc2ccccc2)c1 (stereo not drawn) [11M]	< 10	107 to 109 °C	< 10	–	–	–	–
CNC(=O)c1cccc(CN2C(=O)N(Cc3cccc(C(=O)OC)c3)C(Cc3ccccc3)C(O)C(O)C2Cc2ccccc2)c1 (stereo not drawn) [11G]	< 10	158 to 161 °C	< 10	–	–	–	–
O=C1N(Cc2cccc(-c3nnn[nH]3)c2)C(Cc2ccccc2)C(O)C(O)C(Cc2ccccc2)N1Cc1cccc(-c2nnn[nH]2)c1 (stereo not drawn) [9T]	> 100	159.4 °C	< 10	–	–	–	–
O=C1N(Cc2cccc(OCCN3CCOCC3)c2)C(Cc2ccccc2)C(O)C(O)C(Cc2ccccc2)N1Cc1cccc(OCCN2CCOCC2)c1 (stereo not drawn) [Example 15YG]	–	110 to 112 °C	–	< 10	10 to 1000	–	–
CNc1cccc(CN2C(=O)N(Cc3cccc(NC)c3)C(Cc3ccccc3)C(O)C(O)C2Cc2ccccc2)c1 (stereo not drawn) [15D]	< 10	180.3 °C	< 10	–	–	–	–
